Experimental data: US11427588B2, “Compositions and methods for treating neurodegenerative diseases and cardiomyopathy” (THE REGENTS OF THE UNIVERSITY OF CALIFORNIA, priority 2013, dated 2022)
Entries after “also recorded” stand apart in the source; their conditions may differ.

Key:
PINK1−/− mice [1] = test: Heart health and performance in mice treated from birth; assay type: in vivo
Protocol: PINK1 expression is protective in several mouse models of heart failure. PINK1wt expression will block pathological hypertrophy, increase heart fractional shortening, and prevent ischemia induced death of heart tissue. To assay the effect of kinetin PINK1 wt or PINK1−/− mice were treated with vehicle, adenine or kinetin from birth following published protocols for administration of kinetin (Hims et al., 2007; Shetty et al., 2011). The mice were sacrificed and whole hearts analyzed, and isolated cardiomyocytes from mice at appropriate time periods (e.g. 2 and 6 months). O2 consumption, mitochondrial integrity (mtDNA abundance, mitochondrial capacity and JC-1 fluorescence) caspase 3/7 cleavage activity and TUNEL staining were measured to assess the health of these tissues. According to published results (Billia et al., 2011; Chen and Dorn, 2013), PINK1 activity is essential for normal 02 consumption and maintenance of mitochondrial integrity. Decreased 02 consumption and mitochondrial integrity in PINK1−/− mice was compared to PINK1wt mice. […] Additionally, caspase 3/7 cleavage activity and TUNEL staining of the left ventricle were increased in PINK1−/− mice derived cardiomyocytes compared to PINK1wt.
In addition to these analyses we analyzed the performance of the heart in whole animals. We utilized the same procedure as above and treated either PINK1wt or PINK1−/− mice with vehicle, adenine or kinetin from birth following published protocols for administration of kinetin (Hims et al., 2007; Shetty et al., 2011). […] These characteristics of pathological hypertrophy indicate heart failure in the PINK1−/− mice will not increase as dramatically in PINK1wt mice (Billia et al., 2011). […] These experiments indicate that amplification of PINK1 activity by treatment with kinetin can block age-induced loss in heart function.

[2] = system: PINK1^G309D mutant expressing cells; test: Parkin S65 phosphorylation after CCCP, phospho specific antibodies after immuno-precipitating Parkin; assay type: cell-based; settings: S65 phosphosite
Protocol: Parkin phosphorylation and mitochondrial translocation assay: HeLa cells were grown in DMEM supplemented with 10% FBS. Log phase cells were plated in 24 well plates with glass coverslips (Mattek) pretreated with fibronectin. Cells were pretreated with 50 μM of the indicated compound, followed by transfection with MitoGFP, mCherry Parkin, and full length PINK1FLAG3 in a 1:4:2 ratio using Fugene 6 (Promega). Fields of cells were selected by expression of MitoGFP (6 fields/well-3 wells/condition) and imaged at five-minute intervals following depolarization with 5 μM CCCP. Quantification was performed according to published protocols^3 and by creation of a Matlab based script.
To test the PINK1-dependency of our findings, we assayed PINK1 activity by using phospho specific antibodies raised against Parkin's PINK1-specific S65 phosphosite^21 after immuno-precipitating Parkin. […] To test whether kinetin stimulated Parkin localization was due to reversible binding of kinetin to PINK1, we treated the cells with fresh medium for 96 hours before performing a new recruitment assay. Similar recruitment rates were observed following the washout (FIG. 2F). […] We followed previously published methods to calculate the percentage of GFP labeled mitochondria with mCherryParkin associated. […]

PINK1−/− mice [3] = test: Induced myocardial infarction model; assay type: in vivo
Protocol: Utilizing mice dosed with kinetin, adenine or vehicle for two weeks, we induced myocardial infarction by ligating the left anterior descending artery at the level of the left atrial appendage (Wang et al., 2006) or sham surgery. Following infarct for 24 or 72 hours, we sacrificed the mice and analyzed the heart by TUNEL staining as cardiomyocytes are susceptible to cell death following infarct. […] These experiments replicate our results in neurons in which kinetin treatment will block apoptosis in response to a number of cellular stressors.

SH-SY5Y cells = test: H2O2 induced apoptosis, Annexin V / PI FACS assay; assay type: cell-based, human; settings: for total amount of apoptotic cells: 50 μM for 96 hours, then 400 μM H2O2 for 24 hours
Protocol: Apoptosis assays and PINK1 shRNA: SH-SY5Y cells (ATCC) were cultured in 1:1 mix of F12K and DMEM supplemented with 20% FBS. PINK1 shRNA lentivirus were produced using a pLKO.1 based shRNA (Sigma) by contransfection with Δ8.9 and pMGD2 vectors in HEK293T cells. SH-SY5Y cells were infected with lentivirus followed by selection with puromycin ([…]). […] Subsequently, cells were stained with Annexin V-FITC and PI and analyzed (FACS Diva) on a FACS LSRII Cytometer ([…]) Apoptosis was calculated as the difference between H2O2 treated samples and the respective control.
Overexpression of PINK1 in neuronal cells (e.g. dopaminergic (DA)) promotes survival in response to oxidative stress and other mitochondrial toxins^7. Before testing the effects of kinetin on apoptosis, we treated DA neurons with 50 μM of either kinetin or adenine and measured cell density after 10 days. […] SH-SY5Y cells were treated with 50 μM kinetin, adenine or DMSO for 96 hours, followed by 400 μM H2O2 treatment for additional 24 hours. Using a cytometry-based FACS assay involving cellular annexin V and propidium iodide staining, we determined the percentage of apoptotic cells after treatment with DMSO, adenine or kinetin.

PINK1wt mice = test: Heart stress model (trans-aortic banding, angiotensin II); assay type: in vivo; settings: two weeks dosing, TAB or Angiotensin II; for pathological hypertrophy: 14 days
From the text: Stress on the heart also induces pathological hypertrophy and increased apoptosis, and serves as a good model for heart disease. We utilized trans-aortic banding (TAB) and treatment with angiotensin II to increase pressure in the heart and a model for heart attack by induced myocardial infarction. We treated mice as above with kinetin as well as adenine and vehicle controls for two weeks. We then increased pressure in the heart by performing surgery to partially occlude the aorta (TAB) or sham operation. Additionally we directly injected of a bolus of Angiotensin II or saline into the heart (Billia et al., 2011) to increase blood pressure. […] As the depletion of PINK1 leads to more pathological hypertrophy and increased apoptosis, by amplifying PINK1 activity these characteristics of heart failure will be further reduced.

Row | Structure (SMILES) | age induced pathological hypertrophy (PINK1−/− mice [1]) | phosphorylation levels of Parkin [2] | scar size and level of collagen deposition (PINK1−/− mice [3]) | total amount of apoptotic cells (SH-SY5Y cells) | pathological hypertrophy (PINK1wt mice) | total amount of apoptotic cells (SH-SY5Y cells; listed as Kinetin) | total number of apoptotic cells (SH-SY5Y cells; 48 hours of treatment, then 24 hours of 400 uM hydrogen peroxide) | total number of TUNEL positive cells, left ventricle (PINK1wt mice)
1 | Nc1ncnc2nc[nH]c12 [adenine, reference compound] | no effect | not | not | no significant change | not | – | – | –
2 | c1coc(CNc2ncnc3[nH]cnc23)c1 [kinetin] | no effect | significantly increased; also recorded: Robust increase | not | significant decrease; also recorded: blocks apoptosis | reduces the pathological hypertrophy | blocks apoptosis | Decrease in the total number of apoptotic cells | reduced the total number of TUNEL positive cells
